For one data set, the system named is HCT-116 cells. Put plainly: Cytotoxicity analysis (MTT/MTS) in HCT-116 colon carcinoma cells. The data set is classed as cell-based, human. Conditions: Table 1; for IC50: Homo sapiens, HCT-116, read-out: HCT 116 IC50. The text has this:
Fortunately, 1 was fluorescent with excitation maxima at 250 nm (ε=20,800 cm^−1M^−1), 289 nm (ε=24,000 cm^−1M^−1) and 342 nm (ε=6900 cm^−1M^−1) and a broad emission from 490-680 nm. Using confocal microscopy, red and green fluorescence from 1 appeared in HCT-116 cells within minutes of addition (FIG. 3A). […] Time course confocal imaging studies were then combined with conventional activity MTT assays^6 to provide a detailed correlation between cellular localization and cytostatic activity.
HCT-116 colon carcinoma cells were plated in 96-well plates at 2.5×10^4 cells/well. After 24 h, the cultures were treated with a single concentration seriniquinone (1) within the range of 0.02-20.0 μM, etoposide (positive control) in the range of 0.05-50 μM or 1% DMSO (negative control). The cells were incubated for either 24 h, 48 h or 72 h. At the end of the incubation period, cultures were added with 3-(4,5-dimethylthiazol-2-yl)-5-(3-carboxymethoxyphenyl)-2-(4-sulfophenyl)-2H-tetrazolium (MTS) for 3 h. Cell viability was quantified by the ability of living cells to reduce the yellow MTS dye to a purple formazan product. Time course experiments were also conducted in HCT-116 cells. Cells were exposed to 1 over short periods (1 h, 3 h, 6 h, and 9 h) followed by incubation in drug-free media to complete a total of 24 h incubation before addition of MTS.

Data set [1] in a line: Stability on storage / in solution. Format: physicochemical.
The test system of the next data set is DCD-1L. In words: Covalent labeling of DCD-1L peptide (fluorescent band on SDS-PAGE). Conditions: 50 μM; for covalent labeling of DCD-1L: 37° C., 24 h. Format: binding, human. The text has this: FIGS. 5A-5E: Seriniquinone (1) targets dermcidin (DCD). […] Sequence listing (FIG. 5B): […] (SEQ ID NO:3); […] (SEQ ID NO:4).
The reactivity between 1 and DCD was then examined. […] These studies now provided initial support for the formation of a unique trimeric covalent adduct, compound 15, between 1, DCD and targeted proteins such as GADPH.

What is called IC50 is the concentration that gives 50% inhibition.

Turning to `Nc1ccc2c(=O)c3c(sc4c(=O)c5ccc(N)cc5c(=O)c43)c(=O)c2c1` [p4], the IC50 in the data set with HCT-116 cells turned out to be 2200 nM. Still for that read-out and setting: next, `O=c1c2cccc(O)c2c(=O)c2c1sc1c(=O)c3c(O)cccc3c(=O)c12` [p21]: 700 nM; `CC(=O)Oc1ccc2c(=O)c3c(sc4c(=O)c5ccc(OC(C)=O)cc5c(=O)c43)c(=O)c2c1` [p14]: 2100 nM. Still for that read-out and setting: next, `O=C(Nc1cccc2c(=O)c3c(sc4c(=O)c5cccc(NC(=O)C(F)(F)F)c5c(=O)c43)c(=O)c12)C(F)(F)F` [p23]: 78 nM. Regarding `Oc1c2ccccc2c(O)c2c1sc1c(O)c3ccccc3c(O)c12` [Compound S23], the stability in solution entry in data set [1] (in solution) was “oxidizes rapidly back to S22a in solution”.

Turning to `CC(C)=CCCc1ccc2c(=O)c3c(sc4c(=O)c5ccccc5c(=O)c43)c(=O)c2c1` [alkene 10, 3-(4-Methylpent-3-en-1-yl)dinaphtho[2,3-b:2′,3′-d]thiophene-5,7,12,13-tetraone], the “covalent labeling of DCD-1L” value in the data set on DCD-1L was “covalently label DCD-1L”. Further, in the data set on DCD-1L (PBS pH 7.2, 5% DMSO, 23° C., 24 h (FIG. 5E)), the “fluorescent labeling of DCD-1L fragment” value was “fluorescent bands corresponding to DCD-1L”. Also, the “storage stability of pure material” value in data set [1] (1 month at −20° C.) was “significant decomposition”. For `Nc1cccc2c(=O)c3c(sc4c(=O)c5cccc(N)c5c(=O)c43)c(=O)c12` [p20], in the data set with HCT-116 cells, the IC50 came to 780 nM. Take `O=c1c2ccccc2c(=O)c2sc3c(=O)c4ccccc4c(=O)c3sc12` [p2]: in the data set on HCT-116 cells, the “HCT 116 IC50, μM” value is on record as “NSA”.

As for `O=C(O)CCc1ccc2c(=O)c3c(sc4c(=O)c5ccccc5c(=O)c43)c(=O)c2c1` [acid 11, 3-(5,7,12,13-Tetraoxo-5,7,12,13-tetrahydrodinaphtho[2,3-b:2′,3′-d]-thiophen-3-yl)-propanoic acid], in the data set on DCD-1L, the “covalent labeling of DCD-1L” value was “covalently label DCD-1L”. Consider `O=c1c2cc(Cl)ccc2c(=O)c2c1sc1c(=O)c3ccc(Cl)cc3c(=O)c12` [p9], for which the IC50 in the data set with HCT-116 cells worked out at 550 nM. The same measure, in the same setting: next, `O=c1c2cc(O)ccc2c(=O)c2c1sc1c(=O)c3ccc(O)cc3c(=O)c12` [p6]: 1900 nM; `O=C(Nc1ccc2c(=O)c3c(sc4c(=O)c5ccc(NC(=O)C(F)(F)F)cc5c(=O)c43)c(=O)c2c1)C(F)(F)F` [p12]: 710 nM.

The values are drawn from US9481662B2, “Seriniquinones, melanoma-specific anticancer agents” (The Regents of the University of California, priority 2012, dated 2016).
